The text below walks through data of ChEMBL document CHEMBL1146977, “Taxoid from the needles of the Himalayan yew Taxus wallichiana with cytotoxic and immunomodulatory activities” (Bioorg Med Chem Lett, 2006).

A word on the IC50: it is the point on the concentration scale where inhibition reaches its midpoint.

Format in all cases: functional, cell-based
The subject of assay [1] is PA-1. Put plainly: Cytotoxicity against human PA1 cells by clonogenic assay.
Assay [2] relates to KB. Put plainly: Cytotoxicity against human KB cells by clonogenic assay.
For assay [3], the system named is COLO 320DM. Put plainly: Cytotoxicity against human Colo320DM cells by clonogenic assay.
For assay [4], the system named is WRL68. Put plainly: Cytotoxicity against human WRL68 cells by MTT assay.
Assay [5] deals with PA-1. Put plainly: Cytotoxicity against human PA1 cells by MTT assay. On the technique in general: Tetrazolium dyes change colour on reduction, which living cells bring about.
For assay [6], the system named is COLO 320DM. Put plainly: Cytotoxicity against human Colo320DM cells by MTT assay.
Assay [7] relates to MCF7. Put plainly: Cytotoxicity against human MCF7 cells by clonogenic assay.
Assay [8] deals with WRL68. Put plainly: Cytotoxicity against human WRL68 cells by clonogenic assay.
The test system of assay [9] is MCF7. Put plainly: Cytotoxicity against human MCF7 cells by MTT assay.
The test system of assay [10] is KB. Put plainly: Cytotoxicity against human KB cells by MTT assay.

Structures are written as SMILES. In brackets after ≈: the same amount, converted by molar mass.

Take `C=C1[C@H]2C[C@]3(O)C[C@H](OC(C)=O)C(C)=C([C@@H](OC(C)=O)[C@H](OC(C)=O)[C@]2(C)[C@@H](OC(C)=O)C[C@@H]1O)C3(C)C`: the IC50 turned out to be 0.85 µg/mL (≈ 1.58 µM) in the assay with PA-1 [1]; 1.23 µg/mL (≈ 2.29 µM) in the assay on KB [2]; 1.82 µg/mL (≈ 3.39 µM) in the assay on COLO 320DM [3]; 1.65 µg/mL (≈ 3.07 µM) with WRL68 [4]; 0.01 µg/mL (≈ 0.0186 µM) with PA-1 [5]; 0.23 µg/mL (≈ 0.429 µM) with COLO 320DM [6]. The IC50 amounted to 8.42 µg/mL (≈ 15.7 µM) in the assay on MCF7 [7], 12.8 µg/mL (≈ 23.9 µM) with WRL68 [8], 0.18 µg/mL (≈ 0.335 µM) with MCF7 [9] and 0.04 µg/mL (≈ 0.0745 µM) in the assay on KB [10].

Consider `CC[C@]1(O)C[C@@H]2CN(CCc3c([nH]c4ccccc34)[C@@](C(=O)OC)(c3cc4c(cc3OC)N(C)[C@H]3[C@@](O)(C(=O)OC)[C@H](OC(C)=O)[C@]5(CC)C=CCN6CC[C@]43[C@@H]65)C2)C1` [VINBLASTINE], for which the IC50 in the assay with PA-1 [1] came out at 1.15 µg/mL (≈ 1.42 µM); with KB [2] it was 0.46 µg/mL (≈ 0.567 µM); with COLO 320DM [3], 1.6 µg/mL (≈ 1.97 µM); with WRL68 [4] it was 1.45 µg/mL (≈ 1.79 µM); in the assay with PA-1 [5], 0.025 µg/mL (≈ 0.0308 µM); with COLO 320DM [6] it was 0.52 µg/mL (≈ 0.641 µM). The IC50 in the assay with MCF7 [7] is 0.22 µg/mL (≈ 0.271 µM); with WRL68 [8] it was 2.6 µg/mL (≈ 3.21 µM); in the assay with MCF7 [9] it was 0.02 µg/mL (≈ 0.0247 µM); with KB [10] it was 0.046 µg/mL (≈ 0.0567 µM).

`CC[C@]1(O)C[C@H]2CN(CCc3c([nH]c4ccccc34)[C@@](C(=O)OC)(c3cc4c(cc3OC)N(C=O)[C@H]3[C@@](O)(C(=O)OC)[C@H](OC(C)=O)[C@]5(CC)C=CCN6CC[C@]43[C@@H]65)C2)C1` [VINCRISTINE]: the IC50 with PA-1 [1] stood at 1 µg/mL (≈ 1.21 µM); in the assay with KB [2] it was 0.25 µg/mL (≈ 0.303 µM); with COLO 320DM [3], 1.5 µg/mL (≈ 1.82 µM); in the assay with WRL68 [4] it was 1.42 µg/mL (≈ 1.72 µM); with PA-1 [5], 0.01 µg/mL (≈ 0.0121 µM); in the assay with COLO 320DM [6], 0.46 µg/mL (≈ 0.558 µM). The IC50 in the assay with MCF7 [7] is 0.15 µg/mL (≈ 0.182 µM); in the assay on WRL68 [8], 8.5 µg/mL (≈ 10.3 µM); in the assay with MCF7 [9], 0.05 µg/mL (≈ 0.0606 µM); in the assay with KB [10], 0.02 µg/mL (≈ 0.0242 µM).
